Values belong to the compound of their own block, whether it stands above or below them.
Experiments:
[1] = tested on: subcutaneous MH3924A tumor; assay: MRI of ACI rats bearing a subcutaneous MH3924A tumor; format: in vivo, rat; conditions: 1 h post Gd, 0.1 mmol/kg i.v., 2.35 T
Protocol: (§1) Animal models. For in vivo tumor studies 2×10^6 MH3924A tumor cells were injected subcutaneously into the right thigh of male ACI rats (Charles River, Sulzfeld, Germany) weighing 220 to 260 g. All animal experiments were performed in compliance with the German Animal Protection Laws (Permission 35-9185.81/G-7-03, Reg.-Praesidium, Karlsruhe, Germany).
MRI. At 25 days after inoculation, when tumors had reached a diameter of ca. 10-15 mm, the MR imaging experiments were initiated. ACI rats were anesthetized by intravenous injection of ketamin (Ketanest®, 0.1 mg/g body wt.; Parke-Davis, Berlin, Germany). Then a dose of 0.1 mmol/kg Magnevist® or Gadovist® (Schering, Berlin, Germany) or one of the synthesized agents Gd-3.1., Gd-5.1. or Gd-6.1. was injected intravenously into a lateral tail vein. For one experiment a higher dose (0.36 mmol/kg) of Magnevist® was used. Individual rats were examined by MRI at 1 h and 24 h post Gd, in the case of Magnevist® also at ca. 15 min post Gd. Proton imaging studies were performed at 2.35 T (100.3 MHz) with a Biospec 24/40 instrument (Bruker BioSpin MRI, Ettlingen, Germany). […] Two transaxial multislice imaging protocols were applied with a field of view of 70×70 mm, 128 time-domain data points, 96 phase-encoding steps, and 16 slices of 2 mm thickness. A multi-spin-echo sequence was used for proton-density and T2-weighted images (repetition time TR=2 s, 12 echoes with echo times TE of 8, 16, 24, . . . 96 ms, number of averages=1), and a spoiled gradient-echo sequence was used for T1-weighted imaging (TR=212 ms, TE=5 ms, flip angle=60°, number of averages=3). The data were Fourier transformed to give a 128×128 image matrix with 0.55 mm pixel resolution. Analogous T1-weighted images with coronal slices were acquired with a field of view of 80×80 mm and 3-mm slice thickness.
Imaging viewing, ROI analysis and export of TIFF files was performed with the freeware MRIcro from Chris Rorden (http://people.cas.sc.edu/rorden/mricro.html).

[2] = tested on: B16, MH3924A, Hela, MCF-7, A498 and mouse fibroblasts (3T3 NIH); assay: Intracellular uptake, cell panel of FIG. 7A (ICP-MS); format: cell-based; conditions: 1-h incubation, 10-100 μM, samples of 3×10^6 cells (FIG. 7A)
Protocol: (§2) Cell Uptake Studies. A493 (human kidney), B16 melanoma cells (mouse), HeLa (human cervix), MCF-7 (human breats), MH3924A (Morris hepatoma) cells (rat) and 3T3 NIH (mouse fibroblasts) were obtained from the DKFZ tumor cell collection. 3×10^6 cells of each cell type were grown for 24 hours in culture flasks. Afterwards they were incubated for 1 hour in 10 mL culture media containing 0, 10, 50 and 100 μM of Gd-2.2. Gd-3.2 or Gd-4.2. Afterwards the medium was removed, the cells were trypsinated, washed twice, resuspended in culture medium and counted. The gadolinium uptake was determined in triplicate. […] cells were incubated with 0, 1, 2.5, 5 and 10 μM of the Gd-1.2. and Gd-5.2. for 24 h.
(§3) ICP-MS: Equal cell counts were taken and digested with HNO3 under microwave heating (Mars5, CEM). The samples were diluted with water containing Rh-103 as an internal standard. Gd-157 measurements were performed with a high resolution ICP-mass spectrometer (ELEMENT 2, Finnigan MAT). The gadolinium concentrations were determined from standard curves created prior to sample analyses.

[3] = tested on: HeLa (human cervix carcinoma cells); assay: Intracellular uptake of gadolinium complexes (ICP-MS); format: cell-based; conditions: 1 h incubation, 100 μM
Protocol: as §2, §3

[4] = tested on: A498 (human kidney carcinoma); assay: as above; format: cell-based; conditions: A498, 1 h incubation, 100 μM
Protocol: as §2, §3

[5] = tested on: MCF-7 (human breast cancer); assay: as above; format: cell-based; conditions: MCF-7, 1 h incubation, 100 μM
Protocol: as §2, §3

Complex stability = format: physicochemical; conditions: method of Sherry et al.
Protocol: Complex stability. The stability constants were determined using a method of Sherry et al. (39).

human serum albumin = target: T1, human serum albumin (Homo sapiens, UniProt P02768); assay: Serum albumin binding (ultrafiltration, ICP-MS); format: in vitro ADME; conditions: 20 μM complex, 40 g/L HSA, 37° C., ultrafiltrate
T1 construct: purchased Behring, Bern, Switzerland
Protocol: Serum albumin binding. Solutions containing 20 μM Gd-3.1., Gd-5.1. or Gd-6.1. and 40 g/L human serum albumin (Behring, Bern, Switzerland) were incubated at 37° C. for 30 or 90 min. The solutions were subjected to ultrafiltration (filter cutoff 20 kD; Sartorius, Göttingen, Germany), and the amount of unbound complex was determined in the ultrafiltrate with ICP-MS (n=2).
HSA Binding: 20 μM solutions of the complexes were incubated at 37° C. for 30 and 90 minutes in a solution of 40 g HSA/L (Behring, Bern; Switzerland). The amount of unbound complex was determined in ultrafiltrates with ICP-MS.

[6] = tested on: MH3924A Morris hepatoma cells; assay: Intracellular uptake of gadolinium complexes (ICP-MS); format: cell-based, rat; conditions: MH3924A
Protocol: (§4) Cell culture. B16 melanoma cells (mouse) and MH3924A Morris hepatoma cells (rat) were obtained from the German Cancer Research Center (DKFZ) tumor bank and grown at 37° C. as stock cultures in RPMI 1640 supplemented with 10% fetal calf serum and 1% glutamine as standard medium under a 5% CO2 atmosphere (all components: Pan Biotech GmbH, Aidenbach, Germany). For contrast agent uptake studies 10^6 cells were inoculated into 25 cm^2 culture flasks (BD Biosciences, Bedford, USA) and grown for 24 h in 10 mL of the standard culture medium. Cells were then incubated for an additional 24 h (1 h for temperature dependence studies) with fresh medium containing 0, 1, 2.5, 5 or 10 μM of the selected gadolinium complex (three replicate flasks for each incubation). Afterwards the medium was removed, cells were trypsinated, washed twice, resuspended in culture medium and counted (typical yields: 3.5-6 million cells). For comparison 2.5×10^5 human melanocytes (Promo Cell, Heidelberg, Germany) were incubated for 24 h with melanocyte growth medium (Promo Cell, Heidelberg, Germany) containing 0, 1, 2.5, 5 or 10 μM of the selected gadolinium complex (two replicate flasks for each incubation). The work up procedure was as described above typically yielding 2.5×10^5 cells. Cultured human hepatocytes (Cytonet GmbH, Weinheim, Germany) embedded in a collagen matrix in a 12 well microtiter plate, with 6×10^5 viable cells per well were incubated for 24 h in hepatocyte growth medium (Cytonet GmbH, Weinheim, Germany) containing the same concentration series of selected gadolinium complexes. Afterwards the medium was removed, cells were separated using collagenase (Roche Diagnostics, Mannheim, Germany). After digestion the cells were washed twice with PBS, resuspended in culture medium and counted (typical yields: 6×10^5 cells per tube). The intracellular gadolinium content was determined by ICP-MS as described below.
(§5) ICP-MS. Samples containing the above mentioned number of harvested cells were digested with 50% concentrated HNO3 (Superselect; Merck, Darmstadt, Germany) under microwave heating with a Mars 5 apparatus (CEM GmbH, Kamp-Lintfort, Germany). To each sample 100 μL of an aqueous solution of rhodium chloride (1 μg/mL) were added so that Rh-103 could be used as an internal quantification standard. Gd-160 measurements were performed with the ICP-MS instrument mentioned above. The gadolinium concentrations were determined using standard curves created prior to cell analyses. For each uptake incubation condition triplicate cell samples were analyzed, and Gd content for each sample was recorded as the mean of two MS determinations.
(§6) Intracellular Uptake of Gadolinium Complexes. B16 melanoma and MH3924A hepatoma cells as well as human melanocytes and hepatocytes were incubated for 24 h in the presence of the gadolinium complexes shown in FIG. 1, using concentrations in the range of 1-10 μM. Incubations with the unsubstituted [Gd(DTPA)(H2O)]^2−complex (Magnevist®) served as controls. Following cell harvest and hydrolysis, inductively coupled plasma mass spectrometry (ICP-MS) with direct detection of gadolinium was used to quantitate complex uptake (triplicate cultures for each incubation).
as §2, with “h. […]” for “h.”

B16 melanoma cells = assay: as above; format: cell-based, mouse; conditions: B16 melanoma cells, 1 h incubation, 100 μM
Protocol: as §4, §5, §6
as §2, with “h. […]” for “h.”

[7] = Biodistribution in BALB/c nu/nu mice carrying B16 melanoma; format: in vivo, mouse; conditions: 1 h post i.v. injection, perfused organs, B16 melanoma-bearing mice
Protocol: as §1, with “model.” for “models.”, “3×10^6 B16” for “2×10^6 MH3924A”, “BALB/c nu/nu mice” for “ACI rats”, “18” for “220”, “21” for “260”
Biodistribution data. At 10 days after tumor inoculation, when tumors had reached a diameter of ca. 7-8 mm, the biodistribution experiments were initiated. Each animal (18-21 g) was given an intravenous tail-vein injection of 975 μmol/kg Gadovist® (Schering, Berlin, Germany) or 1 μmol/kg of Gd-2.2. 1 h post-injection (p.i.), the animals were weighed, sacrificed by cervical dislocation, perfused and dissected. Organs or tissues were blotted dry and weighed. Samples containing the tumor or organs were digested with concentrated HNO3 (Superselect; Merck, Darmstadt, Germany) and H2O2 under microwave heating with a Mars 5 apparatus (CEM GmbH, Kamp-Lintfort, Germany). To each sample 100 μL of an aqueous solution of rhodium chloride (1 μg/mL) were added so that Rh-103 could be used as an internal quantification standard. […] The gadolinium concentrations were determined using standard curves created prior to tissue analyses. The results are expressed as nmol Gd/g tissue scaled on the dose of 100 μmol of the corresponding Gd complex.

T1 sequence (P02768 25-609): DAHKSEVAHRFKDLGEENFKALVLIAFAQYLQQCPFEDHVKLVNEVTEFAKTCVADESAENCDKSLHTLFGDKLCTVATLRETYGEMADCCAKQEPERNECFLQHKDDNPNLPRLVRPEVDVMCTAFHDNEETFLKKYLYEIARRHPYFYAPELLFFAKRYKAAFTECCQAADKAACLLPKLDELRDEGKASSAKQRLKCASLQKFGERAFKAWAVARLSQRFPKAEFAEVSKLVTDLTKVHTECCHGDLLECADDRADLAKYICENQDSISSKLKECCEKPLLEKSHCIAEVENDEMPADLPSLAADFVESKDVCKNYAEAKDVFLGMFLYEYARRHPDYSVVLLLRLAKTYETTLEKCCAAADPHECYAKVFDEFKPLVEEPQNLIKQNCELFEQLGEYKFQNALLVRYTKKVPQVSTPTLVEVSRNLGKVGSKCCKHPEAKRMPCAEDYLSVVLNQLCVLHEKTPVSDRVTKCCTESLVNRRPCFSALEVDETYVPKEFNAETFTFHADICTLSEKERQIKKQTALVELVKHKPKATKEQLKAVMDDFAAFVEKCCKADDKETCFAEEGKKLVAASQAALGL

SMILES: O=C([O-])CN1CCN(CC(=O)[O-])CCN([C@H](CO)[C@H](O)CO)CCN(CC(=O)[O-])CC1.[Gd+3] (racemic) [Gadovist, gadobutrol, reference compound]
contrast ratio tumor vs. muscle tissue, T1 weighting [1]: ≤ 1.06 | intracellular uptake (below ICP-MS detection limit) [2]: < 0.01 fmol/cell

complex stability constant (Complex stability): about 3.45×10^21 | complex found to be free (unbound) (human serum albumin): 92±5%
SMILES: NCCN(CCN)C(=O)CN1CCN(CC(=O)[O-])CCN(CC(=O)[O-])CCN(CC(=O)[O-])CC1.[Gd+3] [Gd-2.2]
intracellular uptake of gadolinium complex [3]: 0.0078 fmol/cell | intracellular uptake of gadolinium complex [4]: 0.023 fmol/cell | intracellular uptake of gadolinium complex [5]: 0.0086 fmol/cell | intracellular gadolinium content after 1 h incubation plus additional 24 h in complex-free medium [6]: the same as for the 1 h incubation | intracellular uptake of gadolinium complex ([6]; 1 h incubation with 100 μM complex): 0.222 fmol/cell | intracellular uptake of gadolinium complex (B16 melanoma cells): 0.057 fmol/cell | preferential tissue binding (biodistribution) [7]: binds preferentially to kidneys and skin tissue, but shows high tumor uptake as well
